Tested on: 695427-040-R-J1-PDC complex spheroid viability
Assay: Anticancer human tumor 695427-040-R-J1-PDC patient-derived colon adenocarcinoma cell line growth inhibition [POLQ]
Conditions: for IC50: curve of first compound; for viability, T/C: stronger effect = lower value; active = viability on the fitted dose curve at most 10% of control; inactive = the rest
In short: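 PDC + HUVEC + MSC complex spheroids; POLQ inhibitors ± partner drugs; top conc. at/near clinical Cmax, else 10 microM (SN-38 1 microM), half-log dilutions; 37 degrees C, 5% CO2.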

[1] = second compound 0.0316 µM, first compound 0.0316 µM
[2] = second compound 0.0316 µM, first compound 0.1 µM
[3] = second compound 0.0316 µM, first compound 0.316 µM
[4] = second compound 0.0316 µM, first compound 1 µM
[5] = second compound 0.0316 µM, first compound 3.16 µM
[6] = second compound 0.0316 µM, first compound 10 µM
[7] = second compound 0.1 µM, first compound 0.0316 µM
[8] = second compound 0.1 µM, first compound 0.1 µM
[9] = second compound 0.1 µM, first compound 0.316 µM
[10] = second compound 0.1 µM, first compound 1 µM
[11] = second compound 0.1 µM, first compound 3.16 µM
[12] = second compound 0.1 µM, first compound 10 µM
[13] = second compound 0.316 µM, first compound 0.0316 µM
[14] = second compound 0.316 µM, first compound 0.1 µM
[15] = second compound 0.316 µM, first compound 0.316 µM
[16] = second compound 0.316 µM, first compound 1 µM
[17] = second compound 0.316 µM, first compound 3.16 µM
[18] = second compound 0.316 µM, first compound 10 µM
[19] = second compound 1 µM, first compound 0.0316 µM
[20] = second compound 1 µM, first compound 0.1 µM
[21] = second compound 1 µM, first compound 0.316 µM
[22] = second compound 1 µM, first compound 1 µM
[23] = second compound 1 µM, first compound 3.16 µM
[24] = second compound 1 µM, first compound 10 µM
[25] = second compound 3.16 µM, first compound 0.0316 µM
[26] = second compound 3.16 µM, first compound 0.1 µM
[27] = second compound 3.16 µM, first compound 0.316 µM
[28] = second compound 3.16 µM, first compound 1 µM
[29] = second compound 3.16 µM, first compound 3.16 µM
[30] = second compound 3.16 µM, first compound 10 µM
[31] = second compound 10 µM, first compound 0.0316 µM
[32] = second compound 10 µM, first compound 0.1 µM
[33] = second compound 10 µM, first compound 0.316 µM
[34] = second compound 10 µM, first compound 1 µM
[35] = second compound 10 µM, first compound 3.16 µM
[36] = second compound 10 µM, first compound 10 µM
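Also: spheroids exposed to compounds for seven days.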
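For viability, T/C in this document: 100% = DMSO vehicle control viability.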

O=C(c1cc(Cc2n[nH]c(=O)c3ccccc23)ccc1F)N1CCN(C(=O)C2CC2)CC1 + COC1C(OC(N)=O)C(O)C(Oc2ccc3c(O)c(NC(=O)c4ccc(O)c(CC=C(C)C)c4)c(=O)oc3c2C)OC1(C)C
inactive: viability, T/C [1] 115% | viability, T/C [2] 106% | viability, T/C [3] 105% | viability, T/C [4] 105% | viability, T/C [5] 110% | viability, T/C [6] 97.9% | viability, T/C [7] 108% | viability, T/C [8] 108% | viability, T/C [9] 108% | viability, T/C [10] 105% | viability, T/C [11] 111% | viability, T/C [12] 96.3% | viability, T/C [13] 110% | viability, T/C [14] 96.9% | viability, T/C [15] 105% | viability, T/C [16] 104% | viability, T/C [17] 114% | viability, T/C [18] 108% | viability, T/C [19] 110% | viability, T/C [20] 105% | viability, T/C [21] 104% | viability, T/C [22] 106% | viability, T/C [23] 117% | viability, T/C [24] 101% | viability, T/C [25] 97.1% | viability, T/C [26] 96.7% | viability, T/C [27] 94.3% | viability, T/C [28] 108% | viability, T/C [29] 117% | viability, T/C [30] 112% | viability, T/C [31] 103% | viability, T/C [32] 103% | viability, T/C [33] 115% | viability, T/C [34] 107% | viability, T/C [35] 114% | viability, T/C [36] 97%
> 10 µM: IC50 (second compound 0.0316 µM) | IC50 (second compound 0.1 µM) | IC50 (second compound 0.316 µM) | IC50 (second compound 1 µM) | IC50 (second compound 3.16 µM) | IC50 (second compound 10 µM)

CC1COCCN1c1cc(C2(S(C)(=N)=O)CC2)nc(-c2ccnc3[nH]ccc23)n1 (stereo not drawn) + Nc1ccc(C#CCN(C(=O)Cc2ncc(C(F)(F)F)cc2C(F)(F)F)c2ccc(F)cc2)nn1
inactive: viability, T/C [1] 110% | viability, T/C [2] 103% | viability, T/C [3] 99.4% | viability, T/C [4] 106% | viability, T/C [5] 99.6% | viability, T/C [6] 96.2% | viability, T/C [7] 108% | viability, T/C [8] 100% | viability, T/C [9] 97.4% | viability, T/C [10] 98.1% | viability, T/C [11] 112% | viability, T/C [12] 94.5% | viability, T/C [13] 96.8% | viability, T/C [14] 104% | viability, T/C [15] 93.9% | viability, T/C [16] 104% | viability, T/C [17] 99.9% | viability, T/C [18] 82.2% | viability, T/C [19] 102% | viability, T/C [20] 101% | viability, T/C [21] 102% | viability, T/C [22] 102% | viability, T/C [23] 102% | viability, T/C [24] 86.6% | viability, T/C [25] 100% | viability, T/C [26] 95.1% | viability, T/C [27] 99.3% | viability, T/C [28] 101% | viability, T/C [29] 95.4% | viability, T/C [30] 88.2% | viability, T/C [31] 104% | viability, T/C [32] 97.9% | viability, T/C [33] 95% | viability, T/C [34] 96.7% | viability, T/C [35] 91.6% | viability, T/C [36] 74.9%
> 10 µM: IC50 (second compound 0.0316 µM) | IC50 (second compound 0.1 µM) | IC50 (second compound 0.316 µM) | IC50 (second compound 1 µM) | IC50 (second compound 3.16 µM) | IC50 (second compound 10 µM)

Nc1ccn(C2OC(CO)C(O)C2(F)F)c(=O)n1 (stereo not drawn) + Cc1cccc(N(C)C(=O)C2C(O)CCN2c2nc(C)cc(C(F)(F)F)c2C#N)c1
> 10 µM: IC50 (second compound 0.0316 µM) | IC50 (second compound 0.1 µM) | IC50 (second compound 0.316 µM) | IC50 (second compound 1 µM) | IC50 (second compound 3.16 µM) | IC50 (second compound 10 µM)
inactive: viability, T/C [1] 83% | viability, T/C [2] 79.4% | viability, T/C [3] 76.4% | viability, T/C [4] 72.6% | viability, T/C [5] 68% | viability, T/C [6] 52.4% | viability, T/C [7] 93.8% | viability, T/C [8] 87.9% | viability, T/C [9] 77.4% | viability, T/C [10] 70.8% | viability, T/C [11] 63.5% | viability, T/C [12] 54.2% | viability, T/C [13] 103% | viability, T/C [14] 87.8% | viability, T/C [15] 71.2% | viability, T/C [16] 72.8% | viability, T/C [17] 66.3% | viability, T/C [18] 55.8% | viability, T/C [19] 90.9% | viability, T/C [20] 82.7% | viability, T/C [21] 71% | viability, T/C [22] 70.8% | viability, T/C [23] 66.5% | viability, T/C [24] 55.1% | viability, T/C [25] 91.8% | viability, T/C [26] 80.8% | viability, T/C [27] 75.5% | viability, T/C [28] 68.3% | viability, T/C [29] 70.2% | viability, T/C [30] 57.6% | viability, T/C [31] 84.9% | viability, T/C [32] 86.4% | viability, T/C [33] 75.6% | viability, T/C [34] 72.5% | viability, T/C [35] 69.5% | viability, T/C [36] 58.5%

C=CCn1c(=O)c2cnc(Nc3ccc(N4CCN(C)CC4)cc3)nc2n1-c1cccc(C(C)(C)O)n1 + Nc1ccc(C#CCN(C(=O)Cc2ncc(C(F)(F)F)cc2C(F)(F)F)c2ccc(F)cc2)nn1
> 1 µM: IC50 (second compound 0.0316 µM) | IC50 (second compound 0.1 µM) | IC50 (second compound 0.316 µM) | IC50 (second compound 1 µM) | IC50 (second compound 3.16 µM) | IC50 (second compound 10 µM)
inactive: viability, T/C (second compound 0.0316 µM, first compound 0.00316 µM) 101% | viability, T/C (second compound 0.0316 µM, first compound 0.01 µM) 99.5% | viability, T/C [1] 112% | viability, T/C [2] 101% | viability, T/C [3] 96.7% | viability, T/C [4] 74.6% | viability, T/C (second compound 0.1 µM, first compound 0.00316 µM) 106% | viability, T/C (second compound 0.1 µM, first compound 0.01 µM) 101% | viability, T/C [7] 94.8% | viability, T/C [8] 96.9% | viability, T/C [9] 99.9% | viability, T/C [10] 78% | viability, T/C (second compound 0.316 µM, first compound 0.00316 µM) 113% | viability, T/C (second compound 0.316 µM, first compound 0.01 µM) 107% | viability, T/C [13] 101% | viability, T/C [14] 97.7% | viability, T/C [15] 91.4% | viability, T/C [16] 81% | viability, T/C (second compound 1 µM, first compound 0.00316 µM) 104% | viability, T/C (second compound 1 µM, first compound 0.01 µM) 96% | viability, T/C [19] 96.4% | viability, T/C [20] 94.2% | viability, T/C [21] 93.8% | viability, T/C [22] 71.7% | viability, T/C (second compound 3.16 µM, first compound 0.00316 µM) 98.6% | viability, T/C (second compound 3.16 µM, first compound 0.01 µM) 101% | viability, T/C [25] 107% | viability, T/C [26] 98.7% | viability, T/C [27] 85.8% | viability, T/C [28] 74.2% | viability, T/C (second compound 10 µM, first compound 0.00316 µM) 91.8% | viability, T/C (second compound 10 µM, first compound 0.01 µM) 93.7% | viability, T/C [31] 85.8% | viability, T/C [32] 99.4% | viability, T/C [33] 81.8% | viability, T/C [34] 65.3%
